Eleven molecules from ChEMBL document CHEMBL1201862, “PubChem BioAssay data set” (2004) can be followed below.

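Cultured in 96-well plates, cells were exposed to test compound for 48 hours across five concentrations. The concentration for 50% growth inhibition is given as GI50.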 The source made the active and inactive calls. Cut-off read from the data, not from the text of the source: active = GI50 up to about 1.1 µM and inactive = higher.

What all share (assay): inhibition of tumour cell growth, NCI panel, 48 h
Experiment [1] relates to MCF7.
Experiment [2] concerns ACHN.
For experiment [3], the system named is M14.
The test system of experiment [4] is SK-OV-3.
The test system of experiment [5] is RPMI-8226.
Experiment [6] concerns SF-295.
In experiment [7] the test system is RXF 393.
The subject of experiment [8] is SF-539.
The test system of experiment [9] is IGROV-1.
In experiment [10] the test system is OVCAR-4.
The subject of experiment [11] is TK-10.
For experiment [12], the system named is SK-MEL-28.
In experiment [13] the test system is DU-145.
Experiment [14] deals with MDA-MB-435.
In experiment [15] the test system is MOLT-4.
The subject of experiment [16] is COLO 205.
Experiment [17] concerns A549.
For experiment [18], the system named is Malme-3M.
In experiment [19] the test system is OVCAR-5.

For the molecule `O=C1NNC2(C(=O)N1)c1ccccc1-c1ccccc12`, the GI50 in experiment [1], in experiment [2], in experiment [3], in experiment [4], in experiment [5] and in experiment [6] was > 10 µM (inactive) each time. The GI50 in [7], in [8], in experiment [9], in experiment [10], in experiment [11] and in experiment [12] was > 10 µM (inactive) each time. In addition, the GI50 in experiment [13], in [14], in [15], in [16], in [17] and in [18] was > 10 µM (inactive) each time.

As to `Nn1c(-c2ccccc2)nn(C(=O)c2ccccc2)c1=O`, the GI50 in [1], in experiment [2], in [3], in experiment [5], in experiment [19] and in experiment [6] was > 100 µM (inactive) in each case. The GI50 in experiment [7], in [8], in experiment [9], in [10], in experiment [11] and in experiment [12] was > 100 µM (inactive) throughout. Moreover, the GI50 in experiment [13], in [14], in experiment [15], in experiment [16], in experiment [17] and in experiment [18] was > 100 µM (inactive) in each case.

In the case of `Oc1cc(Cc2ccccc2)c(Cc2ccccc2)cc1O`, the GI50 in [1], in experiment [2], in experiment [3], in experiment [4], in experiment [5] and in experiment [19] was > 10 µM (inactive) each time. Also, the GI50 in experiment [6], in [7], in [8], in experiment [9], in experiment [10] and in [12] was > 10 µM (inactive) each time. For the same molecule, the GI50 in experiment [13], in experiment [14], in experiment [15], in experiment [16], in [17] and in [18] was > 10 µM (inactive) each time.

As to `NC(=S)SC1=NC(=O)C2(NN1)c1ccccc1-c1ccccc12`, the GI50 in experiment [1] is > 10 µM (inactive); in [2] it was 5.36 µM (inactive); in experiment [3], > 10 µM (inactive); in experiment [4], > 10 µM (inactive); in [5] it was 5.12 µM (inactive); in experiment [6], > 10 µM (inactive). Also, the GI50 in experiment [7], in experiment [8], in experiment [9], in experiment [10], in experiment [11] and in experiment [12] was > 10 µM (inactive) throughout. Further, the GI50 in experiment [13], in experiment [14], in experiment [16], in [17] and in experiment [18] was > 10 µM (inactive) throughout.

As to `CN(C)S(=O)(=O)c1nc(Cl)c2nc[nH]c2n1`, the GI50 in experiment [1], in experiment [2], in [3], in experiment [4], in [5] and in [19] was > 100 µM (inactive) each time. Moreover, the GI50 was > 100 µM (inactive) in experiment [6]; 55.7 µM (inactive) in experiment [7]; > 100 µM (inactive) in experiment [9]; > 100 µM (inactive) in experiment [10]; > 100 µM (inactive) in [11]; > 100 µM (inactive) in experiment [12]. Moreover, the GI50 in experiment [13], in [14], in experiment [15], in [16], in experiment [17] and in [18] was > 100 µM (inactive) in each case.

As for `CCCC(=O)OC1CC(n2cc(F)c(=O)[nH]c2=O)OC1CO` (stereo unspecified), the GI50 in experiment [1] was 0.036 µM (active); in experiment [2], 0.0506 µM (active); in [3], 0.33 µM (active); in experiment [4], 4.08 µM (inactive); in experiment [19], > 10 µM (inactive); in experiment [6], 0.148 µM (active). In addition, the GI50 in experiment [7] was > 5.79 µM (inactive); in experiment [8], 0.00859 µM (active); in [9], > 5.89 µM (inactive); in experiment [10], > 10 µM (inactive); in [11], > 2.67 µM (inactive); in [12], > 7.21 µM (inactive). Also, the GI50 in experiment [13] is 0.182 µM (active); in [14], 2.79 µM (inactive); in [15] it was > 6.89 µM (inactive); in [16] it was 4.71 µM (inactive); in [17] it was 0.0538 µM (active); in experiment [18], > 8.79 µM (inactive).

`CC(C)C1=CC(=O)C(C)(C2C(O)CC3(C)C4CC=C5C(CCC(OC6OC(CO)C(O)C(O)C6OC6OC(C)C(O)C(O)C6O)C5(C)C)C4(C)C(=O)CC23C)O1` (stereo unspecified): the GI50 in experiment [1], in experiment [2], in experiment [3], in experiment [4], in [5] and in experiment [19] was > 100 µM (inactive) each time. Further, the GI50 in [6], in experiment [7], in experiment [8], in experiment [9], in [10] and in [12] was > 100 µM (inactive) in each case. Also, the GI50 in experiment [13], in experiment [14], in experiment [15], in experiment [16], in experiment [17] and in experiment [18] was > 100 µM (inactive) each time.

With `O=[N+]([O-])/C=C/c1cccc(F)c1`, the GI50 in experiment [1] is 1.05 µM (active); in experiment [2] it was 2.54 µM (inactive); in [3], 2.74 µM (inactive); in [4], 14.3 µM (inactive); in [5] it was 1.48 µM (inactive); in experiment [6] it was 11.4 µM (inactive). Besides, the GI50 was 2.02 µM (inactive) in experiment [7]; 4.45 µM (inactive) in experiment [8]; 1.37 µM (inactive) in experiment [9]; 3.75 µM (inactive) in experiment [10]; 3.82 µM (inactive) in [11]; 2.28 µM (inactive) in experiment [12]. Further, the GI50 was 4.47 µM (inactive) in [13]; 3.24 µM (inactive) in [14]; 2.74 µM (inactive) in experiment [16]; 4.16 µM (inactive) in experiment [17]; 15.8 µM (inactive) in [18].

Turning to `COc1cc2oc(=O)ccc2cc1CC=C(C)C` [SUBEROSIN], the GI50 in [1] was 32.4 µM (inactive); in experiment [2], 35.2 µM (inactive); in experiment [3] it was > 10 µM (inactive); in experiment [5], 19.5 µM (inactive); in [19], 72.6 µM (inactive); in experiment [6], 41.1 µM (inactive). Also, the GI50 in experiment [7] was 16.9 µM (inactive); in [8], 37.7 µM (inactive); in [9] it was 62.8 µM (inactive); in experiment [10], 23.4 µM (inactive); in experiment [11], 19.9 µM (inactive); in experiment [12], 76.4 µM (inactive). The GI50 was 36.8 µM (inactive) in experiment [13]; 43.3 µM (inactive) in experiment [14]; 28.8 µM (inactive) in experiment [15]; 43.4 µM (inactive) in experiment [16]; 46.8 µM (inactive) in experiment [17]; 37.4 µM (inactive) in [18].

As to `COc1cc(S(=O)(=O)Nc2ccc(-c3csc(/N=C\c4ccccc4O)n3)cc2)ccc1Cl`, the GI50 in experiment [1] is 22.6 µM (inactive); in experiment [2], 62.2 µM (inactive); in [3], 59 µM (inactive); in experiment [4], > 100 µM (inactive); in [5], 29.6 µM (inactive); in experiment [19] it was > 100 µM (inactive). For the same molecule, the GI50 in experiment [6] was 31.5 µM (inactive); in experiment [7] it was 35.6 µM (inactive); in [8], 55.7 µM (inactive); in experiment [9] it was 56 µM (inactive); in experiment [10] it was 44.9 µM (inactive); in experiment [12], 39.3 µM (inactive). Also, the GI50 in experiment [13] was 45.9 µM (inactive); in [14] it was 36.1 µM (inactive); in experiment [15], 15.8 µM (inactive); in [16], 41.2 µM (inactive); in experiment [17], 63.1 µM (inactive); in [18], 39.3 µM (inactive).

Consider `O=C(CSc1nc2ccc(I)cc2c(=O)n1Cc1ccccc1)Nc1ccc(Br)cc1`, for which the GI50 in experiment [1] is > 100 µM (inactive); in experiment [2], > 100 µM (inactive); in experiment [3] it was 56.5 µM (inactive); in [4], > 100 µM (inactive); in [5], > 100 µM (inactive); in [19], 44.5 µM (inactive). In addition, the GI50 in experiment [6] was 35.6 µM (inactive); in experiment [7], 43.9 µM (inactive); in [8], 2.32 µM (inactive); in experiment [9] it was 29.2 µM (inactive); in [10], 34.7 µM (inactive); in experiment [12] it was 49.4 µM (inactive). For the same molecule, the GI50 in experiment [13] is 70.5 µM (inactive); in experiment [14] it was > 100 µM (inactive); in experiment [15], > 100 µM (inactive); in experiment [16], 59.4 µM (inactive); in experiment [17], > 100 µM (inactive); in [18], 16.6 µM (inactive).
